{"source": "patent US11123398B2", "about": "“Chemotherapeutic combinations of cationic antimicrobial peptides and chemotherapeutics” (LYTIX BIOPHARMA AS, priority 2014, dated 2021)", "key": {"[1]": {"system": "A375 cells", "assay": "Fluorescence measurement of reactive oxygen species (ROS)", "type": "cell-based, human", "conditions": "15 minutes of incubation; concentration-dependent", "protocol": "A DCFDA cellular reactive oxygen species detection assay kit was purchased from Abcam®, and A375 cells seeded in a 96-well Costar black clear bottom plate with 20,000 cells per well incubated in 37° C. 16 hours prior to DCFDA assay. Cells were washed with a 100 μL/well of pre-warmed PBS one time, and incubated with 20 μM of DCFDA in a buffer solution supplied with the kit at 37° C. in a cell culture incubator for 45 min, and then washed again with a buffer solution of 100 μL/well. […] The fluorescence intensity was determined at an excitation wavelength of 485 nm and an emission wavelength of 530 nm on a FLUOstar Galaxy plate reader."}, "[2]": {"system": "MCF-7/mdr", "assay": "MTS cytotoxicity assay, MCF-7/mdr", "type": "cell-based, human", "conditions": "IC50 resistant / IC50 sensitive line; doxorubicin resistance", "protocol": "(§1) Tumor cells were plated in 96-well flat-bottom microtitration plates (Nunc, Dutscher, Brumath, France) and incubated at 37° C. for 24 hours before treatment in 190 μl of drug-free culture medium supplemented or not with 10% FBS for adherent or suspension growing cell lines, respectively.\n(§2) The adherent cell lines were washed once with 200 μl FBS-free culture medium before treatment. Tumor cells were incubated for 4 hours with 10 concentrations of compounds in ¼ dilution step with a top dose of 400 μM (range 4×10^−4 to 4×10^−10 M), with 1% (final concentration) Triton X-100 as positive control and FBS-free culture medium as negative control. The cells (190 μl) were incubated in a 200 μl final volume of FBS-free culture medium containing test substances at 37° C. under 5% CO2.\n(§3) Three independent experiments were performed, each concentration being tested in quadruplicate. Control cells were treated with vehicle alone. At the end of treatments, the cytotoxic activity was evaluated by a MTS assay (see § 3.3.).\n(§4) Like MTT, MTS is bioreduced by cells into a formazan product that is directly soluble in culture medium without processing, unlike MTT.\n(§5) At the end of the cells treatment, 40 μl of a 0.22 μm filtered freshly combined solution of MTS (20 ml at 2 mg/ml, Ref G1111, Batch 235897, Exp March 2009, Promega, Charbonnières, France) and PMS (1 ml at 0.92 mg/ml, Ref P9625, Batch 065K0961, Sigma) in Dulbecco's Phosphate Buffered Saline (DPBS, Ref 17-513Q, Batch 6MB0152, Cambrex), were added in each well. Culture plates were incubated for 2 h at 37° C. Absorbency (OD) were measured at 490 nm in each well using VICTOR^3™ 1420 multilabeled counter (Wallac, PerkinElmer, Courtaboeuf, France).\n(§6) IC50: drug concentration to obtain a 50% inhibition of cell proliferation.\n(§7) The dose-response curves were plotted using XLFit 3 (IDBS, United Kingdom). The IC50 determination values were calculated using the XLFit 3 software from semi-log curves. Individual IC50 determination values as well as mean and SD values were generated.\n(§8) Resistance index was calculated using the following formula: […]\n(§9) Resistance index was calculated for each compound for each couple of sensitive and resistant cell lines. Individual resistance index was calculated when IC50 values of both sensitive and corresponding resistant cell lines were determined within same experiment. In addition, resistance index was also calculated ratio of mean IC50 values obtained during three independent experiments."}, "[3]": {"system": "A375 cells", "assay": "TEM electron microscopy, A375", "type": "cell-based, human", "protocol": "A375 cells were seeded at 1×10^5 cells per well in 6-well plates and allowed to grow for three days to optimize membrane structures in the culture, and the media was changed on the second day. Cells were washed twice in serum-free RPMI before being treated with LTX-315 dissolved in serum-free RPMI at 5, 10 and 25 μg/ml, with serum-free RPMI as a negative control. Cells were then washed with PBS twice before fixation for 24 hours in 4° C. with 4% formaldehyde and 1% gluteralaldehyde in a Hepes buffer at pH 7.8. Dehydration and post-fixation protocols included incubation in a 5% buffered tannic acid and incubation in a 1% osmium-reduced ferrocyanide. Ultrathin sections were prepared, and uranyl acetate (5%) and Reynolds's lead citrate were used for staining and contrasting. Samples were examined on a JEOL JEM-1010 transmission electron microscope, and images were taken with an Olympus Morada side-mounted TEM CCD camera (Olympus soft imaging solutions, GmbH, Germany)."}, "[4]": {"system": "A20 lymphoma", "assay": "LTX-315 with metronomic CY in A20 lymphoma model", "type": "in vivo, Balb/c mice", "conditions": "LTX-315 alone, 1 mg i.t. once a day for 3 days", "protocol": "Tumor cells were harvested, washed in RPMI-1640 and injected intradermally (i.d.) into the right side of the abdomen in Balb/c mice (5×10^6 A20 cells per mouse/50 μl RPMI-1640). When animals obtained palpable tumors (20-30 mm^2) animals were injected i.p. with a single dose of CY (day 4) dissolved in saline (2.0 mg CY/500 μl saline). […] Tumor size was measured using an electronic caliper and expressed as the area of an ellipse [(maximum dimension/2)×(minimum dimension/2)×π]. Animals were then euthanized when the product of the perpendicular tumor dimensions reached 130 mm^2 or when tumor ulceration developed."}, "[5]": {"system": "murine A20 B-cell lymphoma", "assay": "Adoptive spleen cell transfer, A20 lymphoma model", "type": "in vivo, Balb/c mice", "conditions": "donors: 1 mg intratumoural once daily for 3 days", "protocol": "[…] Balb/c mice (n=32) were each inoculated with A20 cells (5 million in 50 μL s.c.) on the abdominal surface. Once tumours had reached 20 mm^2 they were injected with LTX-315 (1 mg) injected intratumourally, once daily for 3 days, in a volume of 50 μL. Tumour size (mm^2) and body weight were subsequently monitored and a further injection of LTX-315 was given if any tumour re-growth was observed. Subsequently, mice showing complete tumour regression were sacrificed and used as donors for transfer of splenocytes while naive donor mice were used as controls. Spleens from donor mice were excised and cells isolated. Naive receiver mice were irradiated and divided into 2 groups. Group 1 received isolated splenocytes from cured mice, whereas group 2 received isolated splenocytes from naive mice. Freshly prepared cells were injected (20×106 per 100 μl) via the tail vein. Twenty four hours later receiver mice were inoculated with 5 million murine A20 B-cell lymphoma cells on the abdominal surface as described above. Tumour size and body weight were monitored until the maximum tumour burden of ˜125 mm^2 was reached, or a serious adverse events occurred (i.e. wound formation due to tumour tissue necrosis) at which point mice were sacrificed."}, "[6]": {"system": "IGROV-1/CDDP", "assay": "MTS cytotoxicity assay, IGROV-1/CDDP", "type": "cell-based, human", "conditions": "IC50 resistant / IC50 sensitive line; cisplatin resistance", "protocol": "as §1, §2, §3, §4, §5, §6, §7, §8, §9"}, "[7]": {"system": "HL-60/ADR", "assay": "MTS cytotoxicity assay, HL-60/ADR", "type": "cell-based, human", "conditions": "IC50 resistant / IC50 sensitive line; doxorubicin resistance", "protocol": "as §1, §2, §3, §4, §5, §6, §7, §8, §9"}}, "note": "Non-standard residues stand in square brackets, D forms with d. Residues, ends and D or L forms follow the SMILES beside them. Dip = N[C@H](C(=O)O)C(c1ccccc1)c1ccccc1"}
{"smiles": "NCCCC[C@H](NC(=O)[C@@H](NC(=O)[C@H](Cc1c[nH]c2ccccc12)NC(=O)[C@H](CCCCN)NC(=O)[C@H](CCCCN)NC(=O)[C@H](Cc1c[nH]c2ccccc12)NC(=O)[C@H](Cc1c[nH]c2ccccc12)NC(=O)[C@H](CCCCN)NC(=O)[C@@H](N)CCCCN)C(c1ccccc1)c1ccccc1)C(N)=O", "note": "[LTX-315, K-K-W-W-K-K-W-Dip-K-NH2] (H-KKWWKKW[Dip]K-NH2)", "values": [{"measurement": "ROS generation", "setting": "[1]", "value": "Significant amounts of ROS were generated"}, {"measurement": "Resistance index (RI), MCF-7/mdr", "setting": "[2]", "value": 1.12}, {"measurement": "Cells displaying vacuolization (TEM)", "setting": "[3]; 3.5 μM, 60 minutes", "value": "approximately 20%"}, {"measurement": "Number of necrotic cells (TEM)", "setting": "[3]; 3.5 μM, 60 minutes", "value": "less than 5%"}, {"measurement": "Cells displaying vacuolization (TEM)", "setting": "[3]; 17 μM, 60 min", "value": 4, "unit": "%"}, {"measurement": "Cells with necrotic morphology, loss of plasma membrane integrity (TEM)", "setting": "[3]; 17 μM, 60 min", "value": "approximately 40%"}, {"measurement": "Animals with complete regression of palpable A20 tumors", "setting": "[4]", "value": "one of the animals"}, {"measurement": "Animals with partial response", "setting": "[4]", "value": "remainder of the animals"}, {"measurement": "Tumour growth in irradiated recipients of splenocytes from LTX-315-cured donors versus naive donors", "setting": "[5]", "value": "Inhibition of tumour growth was observed"}, {"measurement": "Resistance index (RI), IGROV-1/CDDP", "setting": "[6]", "value": 0.50}, {"measurement": "Resistance index (RI), HL-60/ADR", "setting": "[7]", "value": 1.45}]}
